Assay results reported in ChEMBL document CHEMBL3813647, “Discovery of an Orally Active and Liver-Targeted Prodrug of 5-Fluoro-2'-Deoxyuridine for the Treatment of Hepatocellular Carcinoma” (J Med Chem, 2016).

Key:
Liver = assay: Drug uptake in Sprague-Dawley rat liver treated with (S)-Isopropyl 2-(((R)-(((2R,3S,5R)-5-(5-fluoro-2,4-dioxo-3,4-dihydropyrimidin-1(2H)-yl)-3-hydroxytetrahydrofuran-2-yl)methoxy)((2-methylbenzyl)oxy)phosphoryl)amino)propanoate; type: ADME, tissue-based; conditions: in vivo
Plasma = assay: Drug uptake in Sprague-Dawley rat plasma treated with (S)-Isopropyl 2-(((R)-(((2R,3S,5R)-5-(5-fluoro-2,4-dioxo-3,4-dihydropyrimidin-1(2H)-yl)-3-hydroxytetrahydrofuran-2-yl)methoxy)((2-methylbenzyl)oxy)phosphoryl)amino)propanoate; type: ADME, cell-free

Drug uptake (Liver): metabolite_detected | Drug uptake (Plasma): metabolite_detected
SMILES: Cc1ccccc1C(=O)NCC(=O)O
